Where two headings read alike, the source gives them in different places.
Columns and labels:
Experiment in all cases: Cysteine liganding, probe competition
Type in all cases: binding
UniProt Q7Z3V4 = biological target: T1, UniProt Q7Z3V4 (Homo sapiens, UniProt Q7Z3V4)
T1 construct: 200 μL of lysate containing 5 mg/ml proteome was treated with 2 μL of 100× compound stock; endogenous in cells
T1 sequence (Q7Z3V4 1-1068): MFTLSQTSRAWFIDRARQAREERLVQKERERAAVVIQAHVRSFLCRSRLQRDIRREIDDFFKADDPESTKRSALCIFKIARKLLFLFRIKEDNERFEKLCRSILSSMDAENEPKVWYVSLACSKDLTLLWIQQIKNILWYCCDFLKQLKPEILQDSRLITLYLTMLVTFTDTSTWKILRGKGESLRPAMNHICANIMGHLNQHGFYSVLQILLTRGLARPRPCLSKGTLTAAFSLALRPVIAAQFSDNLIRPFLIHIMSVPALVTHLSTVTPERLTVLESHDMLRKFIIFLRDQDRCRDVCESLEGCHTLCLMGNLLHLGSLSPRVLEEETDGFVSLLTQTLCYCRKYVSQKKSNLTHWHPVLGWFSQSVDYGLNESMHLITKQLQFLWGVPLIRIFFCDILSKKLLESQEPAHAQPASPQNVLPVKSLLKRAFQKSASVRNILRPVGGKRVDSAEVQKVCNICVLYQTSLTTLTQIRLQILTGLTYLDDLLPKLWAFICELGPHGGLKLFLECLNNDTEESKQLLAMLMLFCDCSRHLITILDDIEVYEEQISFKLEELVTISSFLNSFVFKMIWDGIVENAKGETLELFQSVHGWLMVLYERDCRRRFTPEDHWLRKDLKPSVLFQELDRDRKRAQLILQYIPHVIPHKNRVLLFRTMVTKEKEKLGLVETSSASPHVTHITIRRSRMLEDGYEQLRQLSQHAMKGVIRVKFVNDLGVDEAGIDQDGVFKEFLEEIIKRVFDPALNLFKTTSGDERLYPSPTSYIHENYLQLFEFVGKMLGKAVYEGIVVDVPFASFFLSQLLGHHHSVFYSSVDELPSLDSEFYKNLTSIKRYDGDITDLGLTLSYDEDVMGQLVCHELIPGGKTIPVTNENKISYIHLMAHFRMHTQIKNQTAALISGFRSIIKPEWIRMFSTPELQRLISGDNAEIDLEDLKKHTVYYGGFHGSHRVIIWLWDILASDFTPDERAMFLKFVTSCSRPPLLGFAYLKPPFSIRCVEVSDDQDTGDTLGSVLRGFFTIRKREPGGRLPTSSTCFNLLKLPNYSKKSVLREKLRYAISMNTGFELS
Source text: (§1) The following 96-well sample prep protocol was used for sample preparation.

UniProt Q9Y252 = biological target: T2, UniProt Q9Y252 (Homo sapiens, UniProt Q9Y252); details: for inhibition at 500 µM: read-out: percent_inhibition
T2 construct: 200 μL of lysate containing 5 mg/ml proteome was treated with 2 μL of 100× compound stock; endogenous in cells
T2 sequence (Q9Y252 1-685): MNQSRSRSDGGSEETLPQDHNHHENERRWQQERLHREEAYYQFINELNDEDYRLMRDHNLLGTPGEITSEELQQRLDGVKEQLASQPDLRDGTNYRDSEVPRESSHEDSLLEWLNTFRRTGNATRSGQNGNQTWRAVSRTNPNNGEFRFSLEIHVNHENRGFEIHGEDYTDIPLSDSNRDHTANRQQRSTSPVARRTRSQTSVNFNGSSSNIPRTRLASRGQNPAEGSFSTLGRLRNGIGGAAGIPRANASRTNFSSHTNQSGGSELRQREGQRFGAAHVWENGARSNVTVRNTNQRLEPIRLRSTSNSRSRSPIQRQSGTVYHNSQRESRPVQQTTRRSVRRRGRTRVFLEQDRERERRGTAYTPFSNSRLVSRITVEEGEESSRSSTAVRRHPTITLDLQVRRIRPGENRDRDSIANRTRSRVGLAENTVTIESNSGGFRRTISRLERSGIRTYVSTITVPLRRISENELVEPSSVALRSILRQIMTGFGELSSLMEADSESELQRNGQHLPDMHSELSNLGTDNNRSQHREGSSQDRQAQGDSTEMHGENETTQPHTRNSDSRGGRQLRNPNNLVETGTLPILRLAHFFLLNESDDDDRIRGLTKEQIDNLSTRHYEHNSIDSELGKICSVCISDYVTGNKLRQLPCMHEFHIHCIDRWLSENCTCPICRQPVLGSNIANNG
Source text: as §1

UniProt Q6AZZ1 = biological target: T3, UniProt Q6AZZ1 (Homo sapiens, UniProt Q6AZZ1)
T3 construct: 200 μL of lysate containing 5 mg/ml proteome was treated with 2 μL of 100× compound stock; endogenous in cells
T3 sequence (Q6AZZ1 1-485): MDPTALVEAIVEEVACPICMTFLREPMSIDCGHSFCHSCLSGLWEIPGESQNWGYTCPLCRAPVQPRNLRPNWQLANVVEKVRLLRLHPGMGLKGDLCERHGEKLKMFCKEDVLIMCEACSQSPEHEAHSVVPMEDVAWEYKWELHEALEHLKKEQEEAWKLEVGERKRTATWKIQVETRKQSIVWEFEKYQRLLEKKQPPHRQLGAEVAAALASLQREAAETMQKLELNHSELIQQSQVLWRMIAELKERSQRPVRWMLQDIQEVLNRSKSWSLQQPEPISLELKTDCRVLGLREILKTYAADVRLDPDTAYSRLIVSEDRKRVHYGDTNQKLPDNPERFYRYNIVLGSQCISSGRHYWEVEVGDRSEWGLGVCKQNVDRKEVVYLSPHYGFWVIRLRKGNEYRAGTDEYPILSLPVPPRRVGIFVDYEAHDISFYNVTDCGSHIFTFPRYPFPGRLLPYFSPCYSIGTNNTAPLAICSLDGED
Source text: as §1

UniProt Q6ZTA4 = biological target: T4, UniProt Q6ZTA4 (Homo sapiens, UniProt Q6ZTA4)
T4 construct: 200 μL of lysate containing 5 mg/ml proteome was treated with 2 μL of 100× compound stock; endogenous in cells
Source text: as §1

[1] = read-out: KB02_500 uM_percent_inhibition
[2] = read-out: KB05_500 uM_percent_inhibition

T4 sequence (Q6ZTA4 whole entry, change not shown): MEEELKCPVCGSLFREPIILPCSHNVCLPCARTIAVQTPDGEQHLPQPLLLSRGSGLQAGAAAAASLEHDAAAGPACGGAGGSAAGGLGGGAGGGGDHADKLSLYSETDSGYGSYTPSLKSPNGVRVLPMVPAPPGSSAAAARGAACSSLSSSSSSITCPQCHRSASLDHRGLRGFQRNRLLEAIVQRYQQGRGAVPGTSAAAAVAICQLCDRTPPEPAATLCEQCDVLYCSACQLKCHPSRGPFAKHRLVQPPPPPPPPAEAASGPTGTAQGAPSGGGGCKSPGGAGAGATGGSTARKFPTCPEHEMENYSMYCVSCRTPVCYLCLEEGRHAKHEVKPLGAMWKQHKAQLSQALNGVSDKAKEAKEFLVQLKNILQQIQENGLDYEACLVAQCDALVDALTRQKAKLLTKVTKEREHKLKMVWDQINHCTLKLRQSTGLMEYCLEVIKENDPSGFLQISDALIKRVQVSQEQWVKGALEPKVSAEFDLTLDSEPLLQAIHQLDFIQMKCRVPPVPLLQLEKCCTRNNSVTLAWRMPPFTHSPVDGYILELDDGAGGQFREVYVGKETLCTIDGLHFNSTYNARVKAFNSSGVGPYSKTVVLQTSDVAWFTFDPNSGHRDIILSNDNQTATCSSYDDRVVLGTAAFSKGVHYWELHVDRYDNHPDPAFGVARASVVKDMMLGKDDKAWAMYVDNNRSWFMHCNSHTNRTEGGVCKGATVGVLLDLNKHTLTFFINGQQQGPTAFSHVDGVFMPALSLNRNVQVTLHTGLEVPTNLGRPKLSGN

inhibition at 100 µM (UniProt Q7Z3V4; 100 uM, read-out: KB05_100 uM_percent_inhibition) [%]	inhibition at 500 µM (UniProt Q7Z3V4; 500 uM, read-out: KB05_500 uM_percent_inhibition) [%]	inhibition at 500 µM (UniProt Q6AZZ1; [2]) [%]	inhibition at 500 µM (UniProt Q6ZTA4; [2]) [%]	Compound	inhibition at 100 µM (UniProt Q7Z3V4; 100 uM, read-out: KB02_100 uM_percent_inhibition) [%]	inhibition at 500 µM (UniProt Q7Z3V4; 500 uM, read-out: KB02_500 uM_percent_inhibition) [%]	inhibition at 500 µM (UniProt Q9Y252) [%]	inhibition at 500 µM (UniProt Q6AZZ1; [1]) [%]	inhibition at 500 µM (UniProt Q6ZTA4; [1]) [%]	KB03_100 uM_percent_inhibition (UniProt Q7Z3V4; 100 uM) [%]	KB03_500 uM_percent_inhibition (UniProt Q7Z3V4; 500 uM) [%]	percent_inhibition (UniProt Q9Y252; 500 uM) [%]	KB03_500 uM_percent_inhibition (UniProt Q6AZZ1; 500 uM) [%]	KB03_500 uM_percent_inhibition (UniProt Q6ZTA4; 500 uM) [%]
–	–	–	–	COc1ccc2c(c1)CCCN2C(=O)CCl [KB02]	42	86	38	44	44	–	–	–	–	–
8	64	36	37	C=CC(=O)N(c1ccccc1)c1ccc(Br)cc1 [KB05]	–	–	51	–	–	–	–	–	–	–
–	–	–	–	O=C(CCl)Nc1cc(C(F)(F)F)cc(C(F)(F)F)c1 [KBO3]	–	–	–	–	–	33	56	9	18	6

From US20200239530A1, “COMPOUNDS AND METHODS OF MODULATING PROTEIN DEGRADATION” (Vividion Therapeutics, Inc., priority 2017, published 2020)
